Data: paper PMC11881016, “Deep‐Learning‐Based Approaches for Rational Design of Stapled Peptides With High Antimicrobial Activity and Stability” (Microbial Biotechnology, 2025)
Values after ≈ are worked out from the molar mass of the structure shown. Like-named read-outs stand apart in the source and are kept apart here. *1 amine or outer side, *2 acyl side, *3 side chain or, on linkers, in order; H or OH if unused. Where a SMILES comes first, the peptide text is derived from it. Bridges are numbered along the chain shown (N, C = ends). Where no end group is shown, it is not given here. [ ]: non-standard residue; d: D form. X1 = O=C([C@H](CCCCNCC=[*:3])N[*:1])[*:2]; Octanediyl(1,8) = C(CCCC[*:2])CCC[*:1]; X2 = C(CCCCC[*:2])CCCC[*:1]

Legend:
[1] = Serum stability assay (residual antimicrobial activity against E. coli); type: in vitro ADME, bovine
Description: The serum stability assay was conducted as described by Li et al. ([2020]) with minor modifications. In brief, each peptide was dissolved in PBS solution containing 25% foetal bovine serum (FBS) at a final concentration of 2048 μg/mL and diluted after incubation for 8 h. E. coli was used as the bacterium for the stability assay, and the bacterial inhibition experiment was performed according to the bacterial inhibitory activity assay. Residual activity was calculated using the following formula: Residual activity=MICbefore/MICafter
• where MICbefore represents the MICs against E. coli before incubation, and MICafter represents the MICs against E. coli after incubation for 8 h.

[2] = tested on: Staphylococcus aureus (S. aureus, ATCC6538P); type: cell-based; conditions: ATCC6538
Description: (§1) Escherichia coli ( E. coli , ATCC25922), Klebsiella pneumoniae ( K. pneumoniae , ATCC10031), Staphylococcus aureus ( S. aureus , ATCC6538P), Pseudomonas aeruginosa ( P. aeruginosa , ATCC27853) and methicillin‐resistant Staphylococcus aureus (MRSA) were used to evaluate the antimicrobial activity of the peptides and were purchased from BeNa Culture Collection.
(§2) The MICs of the peptides in vitro were determined using the broth microdilution method with minor modifications (Wiegand et al. [2008]). Peptides were incubated with bacteria (about 5 × 10^5 CFU/mL), and PBS was used as the negative control. After 18–24 h of incubation at 37°C, the bacteria were checked for growth by recording the values at OD600, with three replicates in each group.

[3] = tested on: Pseudomonas aeruginosa (P. aeruginosa, ATCC27853); type: cell-based
Description: as §1, §2

[4] = tested on: Escherichia coli (E. coli, ATCC25922); type: cell-based
Description: as §1, §2

[5] = tested on: Klebsiella pneumoniae (K. pneumoniae, ATCC10031); type: cell-based; conditions: for MIC K. pneumoniae: ATCC10031
Description: as §1, §2

any bacteria = assay: Wet experiment result (antimicrobial activity of the synthesised peptides, positive/negative); type: cell-based; conditions: experiment data set (Supplement S12)
Excerpt: Supplement MBT2-18-e70121-s002.doc, table 9 | column: Wet Exp. Result

[6] = tested on: methicillin‐resistant Staphylococcus aureus (MRSA); type: cell-based; conditions: for MIC MRSA: methicillin‐resistant
Description: as §1, §2

[7] = stapled peptide compared to its linear peptide

Compound | residual antimicrobial activity after incubation in 25% serum (in words) [1] | MIC S. aureus [2] [µg/mL] | MIC P. aeruginosa [3] [µg/mL] | MIC E. coli [4] [µg/mL] | MIC K. pneumoniae [5] [µg/mL] | decrease of residual antimicrobial activity after incubation in 25% serum [1] | Wet Exp. Result (any bacteria) | MIC MRSA [6] [µg/mL] | increase of antibacterial activity against MRSA [6, 7] [fold] | increase of antimicrobial activity against K. pneumoniae [5, 7] | residual antimicrobial activity after incubation in 25% serum (in words) ([1]; 25% foetal bovine serum, 8 h, MIC against E. coli, Figure 7L)
CC[C@H](C)[C@H](NC(=O)CN)C(=O)NCC(=O)N[C@@H](CCCCN)C(=O)N[C@@H](Cc1ccccc1)C(=O)N[C@@H](CC(C)C)C(=O)N[C@@H](Cc1c[nH]cn1)C(=O)N[C@@H](CO)C(=O)N[C@@H](C)C(=O)N[C@@H](CCCCN)C(=O)N[C@@H](CCCCN)C(=O)N[C@@H](Cc1ccccc1)C(=O)NCC(=O)N[C@@H](CCCCN)C(=O)N[C@@H](C)C(=O)N[C@@H](Cc1ccccc1)C(=O)N[C@H](C(=O)N[C@H]1CSSC[C@@H](C(=O)N[C@@H](CO)C(=O)O)NC(=O)[C@H](CC(C)C)NC(=O)[C@H]([C@@H](C)CC)NC(=O)[C@H](CCC(=O)O)NC1=O)C(C)C [Mag2(i + 4)17Dc] (H-GIGKFLHSAKKFGKAFVCEILCS-OH; disulfide 18-22) | significantly decreased | 8 | 64 | 16 | 16 |  |  |  |  |  | 
CC[C@H](C)[C@H](NC(=O)[C@H](CCC(=O)O)NC(=O)CNC(=O)[C@@H](NC(=O)[C@H](Cc1ccccc1)NC(=O)[C@H](C)NC(=O)[C@H](CCCCN)NC(=O)CNC(=O)[C@H](Cc1ccccc1)NC(=O)[C@H](CCCCN)NC(=O)[C@H](CCCCN)NC(=O)[C@H](C)NC(=O)[C@H](CO)NC(=O)[C@H](Cc1c[nH]cn1)NC(=O)[C@H](CC(C)C)NC(=O)[C@@H]1CSCCCCCCCCSC[C@H](N)C(=O)N[C@@H]([C@@H](C)CC)C(=O)NCC(=O)N[C@@H](CCCCN)C(=O)N1)C(C)C)C(=O)N[C@@H](CC(C)C)C(=O)N[C@@H](CC(N)=O)C(=O)N[C@@H](CO)C(=O)O [Mag(i + 4)0St] (H-CIGKCLHSAKKFGKAFVGEILNS-OH; linker 1-5 via Octanediyl(1,8); N-terminus and C-terminus assumed) |  | 32 | 32 | 4 | 16 | approximately 50% | Positive |  |  |  | 
CC[C@H](C)[C@H](NC(=O)CN)C(=O)NCC(=O)N[C@@H](CCCCN)C(=O)N[C@@H](Cc1ccccc1)C(=O)N[C@@H](CC(C)C)C(=O)N[C@@H](Cc1c[nH]cn1)C(=O)N[C@@H](CO)C(=O)N[C@@H](C)C(=O)N[C@@H](CCCCN)C(=O)N[C@@H](CCCCN)C(=O)N[C@H]1CSCCCCCCCCCCSC[C@@H](C(=O)N[C@H](C(=O)N[C@@H](CC(C)C)C(=O)N[C@@H](CC(N)=O)C(=O)N[C@@H](CO)C(=O)O)[C@@H](C)CC)NC(=O)CNC(=O)[C@H](C(C)C)NC(=O)[C@H](Cc2ccccc2)NC(=O)[C@H](C)NC(=O)[C@H](CCCCN)NC(=O)CNC1=O [Mag(i + 7)11St] (H-GIGKFLHSAKKCGKAFVGCILNS-OH; linker 12-19 via X2) | remained unchanged | 2 | 32 | 16 | 8 |  | Positive |  |  |  | 
CC[C@H](C)[C@H](NC(=O)[C@H](CCCNC(=N)N)NC(=O)[C@H](CCCCN)NC(=O)[C@@H](N)Cc1c[nH]c2ccccc12)C(=O)N[C@@H](C)C(=O)N[C@H]1CCCCNC/C=C/CNCCCC[C@@H](C(=O)N[C@@H](CCCCN)C(=O)N[C@@H](CC(C)C)C(=O)NCC(=O)N[C@@H](CCCNC(=N)N)C(=O)N[C@@H](C)C(=O)N[C@@H](CCCCN)C(=O)N[C@@H](CC(C)C)C(=O)N[C@@H](Cc2ccccc2)C(=O)O)NC(=O)[C@H](CCCCN)NC(=O)[C@H](CC(C)C)NC(=O)[C@H](CCCNC(=N)N)NC1=O [VAE‐P3‐3‐St] (H-WKRIA[X1]RLK[X1]KLGRAKLF-OH; staple (E) 6-10) |  | 4 (≈ 1.74 µM) | 16 (≈ 6.98 µM) | 16 (≈ 6.98 µM) | 1 (≈ 0.436 µM) |  | Positive | 4 (≈ 1.74 µM) | 4 | 2–4 fold | 
CC[C@H](C)[C@H](NC(=O)[C@H](CCCNC(=N)N)NC(=O)[C@H](CCCCN)NC(=O)[C@@H](N)Cc1c[nH]c2ccccc12)C(=O)N[C@@H](C)C(=O)N[C@@H](CCCNC(=N)N)C(=O)N[C@H]1CCCCNC/C=C/CNCCCC[C@@H](C(=O)N[C@@H](CC(C)C)C(=O)NCC(=O)N[C@@H](CCCNC(=N)N)C(=O)N[C@@H](C)C(=O)N[C@@H](CCCCN)C(=O)N[C@@H](CC(C)C)C(=O)N[C@@H](Cc2ccccc2)C(=O)O)NC(=O)[C@H](CCCNC(=N)N)NC(=O)[C@H](CCCCN)NC(=O)[C@H](CC(C)C)NC1=O [VAE‐P3‐5‐St] (H-WKRIAR[X1]LKR[X1]LGRAKLF-OH; staple (E) 7-11) |  | 4 (≈ 1.72 µM) | 32 (≈ 13.8 µM) | 16 (≈ 6.89 µM) | 4 (≈ 1.72 µM) |  | Positive | 16 (≈ 6.89 µM) |  |  | 
GIGKFLHSAKKFGKAFVGEIMNS [Mag2, magainin II, reference compound] |  |  |  |  |  |  |  |  |  |  | significantly decreased
